Assay results reported in patent publication US20100137303A1, “NEW COMPOUND 255” (AstraZeneca AB, priority 2008, published 2010).
Values after ≈ are worked out from the molar mass of the structure shown.

Assays:
Msm. GyrB = target: T1, Msm. GyrB (Mycolicibacterium smegmatis, UniProt A0QNE0); assay: Msmegmatis GyrB enzyme assay (ATPase, malachite green phosphate detection); assay type: biochemical; conditions: read-out: Msm_GyrB IC50
T1 construct: 15 nM Msm; GyrB, 650 μM ATP, and compound in dimethyl sulfoxide
Description: Compounds may be tested for inhibition of GyrB ATPase activity using an ammonium molybdate/malachite green-based phosphate detection assay (Lanzetta, P. A., L. J. Alvarez, P. S. Reinach, and O. A. Candia, 1979, 100: 95-97; Innova Biosciences malachite green detection kit). Assays can be performed in multi-well plates in 50 μl reactions containing: 50 mM HEPES buffer pH 7.7, 250 mM potassium glutamate, 200 mM potassium chloride, 2 mM magnesium chloride, 2% glycerol, 1 mM 1,4-Dithio-DL-threitol, 0.005% Brij-35, 15 nM Msm. GyrB, 650 μM ATP, and compound in dimethyl sulfoxide. Reactions can be quenched with 12.5 μl of ammonium molybdate/malachite green detection reagent (Pi color lock gold & accelerator mix; Innova Biosciences), followed by the addition of 5 μl of stabilizer (Innova Biosciences) after 5 min of incubation.

M. tuberculosis = assay: Mycobacteria susceptibility testing, Microplate Alamar Blue Assay, Mtu MIC; assay type: cell-based, Mycobacterium tuberculosis (Mtu); conditions: Mycobacterium tuberculosis
Spn548 = assay: Bacterial susceptibility testing in liquid media, Spn548 MIC; conditions: Streptococcus pneumoniae, 24 h, read-out: Spn548 Mean MIC
Description: (§1) Compounds may be tested for antimicrobial activity by susceptibility testing in liquid media. Compounds may be dissolved in dimethylsulfoxide and tested in 10 doubling dilutions in the susceptibility assays. The organisms used in the assay may be grown overnight on suitable agar media and then suspended in a liquid medium appropriate for the growth of the organism. The suspension can be a 0.5 McFarland and a further 1 in 10 dilution can be made into the same liquid medium to prepare the final organism suspension in 100 μL. Plates can be incubated under appropriate conditions at 37° C. for 24 hrs prior to reading.

Eco-tolC = assay: Bacterial susceptibility testing in liquid media, Eco-tolC MIC; conditions: Escherichia coli, read-out: Eco-tolC MIC
Description: as §1

T1 sequence (A0QNE0 whole entry): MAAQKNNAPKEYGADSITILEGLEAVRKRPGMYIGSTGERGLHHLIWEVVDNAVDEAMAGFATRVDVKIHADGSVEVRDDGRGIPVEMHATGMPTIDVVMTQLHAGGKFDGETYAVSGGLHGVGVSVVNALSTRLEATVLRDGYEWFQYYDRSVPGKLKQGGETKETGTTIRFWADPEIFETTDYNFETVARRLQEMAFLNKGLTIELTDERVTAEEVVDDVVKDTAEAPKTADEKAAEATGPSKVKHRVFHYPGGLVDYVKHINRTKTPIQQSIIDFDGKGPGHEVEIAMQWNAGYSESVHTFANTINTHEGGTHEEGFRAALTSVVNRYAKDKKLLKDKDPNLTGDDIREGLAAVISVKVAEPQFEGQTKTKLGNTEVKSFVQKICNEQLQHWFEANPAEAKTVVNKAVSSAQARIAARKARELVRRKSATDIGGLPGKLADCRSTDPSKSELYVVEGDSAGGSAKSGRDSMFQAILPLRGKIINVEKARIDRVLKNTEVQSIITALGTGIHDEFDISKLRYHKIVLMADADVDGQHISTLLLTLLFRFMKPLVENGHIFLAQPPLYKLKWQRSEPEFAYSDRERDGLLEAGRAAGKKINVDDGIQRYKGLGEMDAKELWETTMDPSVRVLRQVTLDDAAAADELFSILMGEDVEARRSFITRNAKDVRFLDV

CCNC(=O)Nc1nc2cc(N3CCC(O)C3)c(OCC3CCOC3)nc2s1 (stereo not shown) [Example 58, 1-ethyl-3-(6-(3-hydroxypyrrolidin-1-yl)-5-((tetrahydrofuran-3-yl)methoxy)thiazolo[5,4-b]pyridin-2-yl)urea]
IC50 (Msm. GyrB): 2110 nM
MIC (M. tuberculosis): > 8 µg/mL
MIC (Spn548): 4 µg/mL (≈ 9.82 µM)
MIC (Eco-tolC): > 32 µg/mL

CCNC(=O)Nc1nc2cc(-c3ccc(F)nc3)c(OCCOC)nc2s1 [Example 48, 1-ethyl-3-[6-(6-fluoropyridin-3-yl)-5-(2-methoxyethoxy)[1,3]thiazolo[5,4-b]pyridin-2-yl]urea]
IC50 (Msm. GyrB): 4.51 nM
MIC (M. tuberculosis): 0.707 µg/mL (≈ 1.81 µM)
MIC (Spn548): 0.0625 µg/mL (≈ 0.16 µM)
MIC (Eco-tolC): 0.125 µg/mL (≈ 0.319 µM)

C=CCNC(=O)Nc1nc2cc(Cl)cnc2s1 [Example 1, 1-Allyl-3-(6-chloro-thiazolo [5,4-b]pyridin-2-yl)-urea]
IC50 (Msm. GyrB): 191 nM
MIC (M. tuberculosis): 16 µg/mL (≈ 59.5 µM)
MIC (Spn548): 8 µg/mL (≈ 29.8 µM)
MIC (Eco-tolC): 16 µg/mL (≈ 59.5 µM)

CCNC(=O)Nc1nc2cc(-c3cncc(C(=O)OCC)c3)cnc2s1 [Example 9, 5-[2-(3-Ethyl-ureido)-thiazolo [5,4-b]pyridin-6-yl]-nicotinic acid ethyl ester]
IC50 (Msm. GyrB): 51.1 nM
MIC (M. tuberculosis): > 32 µg/mL
MIC (Spn548): 0.58 µg/mL (≈ 1.56 µM)
MIC (Eco-tolC): > 37.1 µg/mL

C=CCNC(=O)Nc1nc2cc(-c3cncc(C(=O)O)c3)cnc2s1 [Example 10, 5-[2-(3-Allyl-ureido)-thiazolo[5,4-b]pyridin-6-yl]-nicotinic acid]
IC50 (Msm. GyrB): 185 nM
MIC (M. tuberculosis): > 16 µg/mL
MIC (Spn548): 32 µg/mL (≈ 90 µM)
MIC (Eco-tolC): > 64 µg/mL

CCNC(=O)Nc1nc2cc(-c3cncc(F)c3)c(OCC3CCOCC3)nc2s1 [Example 60, 1-ethyl-3-[6-(5-fluoropyridin-3-yl)-5-(tetrahydro-2H-pyran-4-ylmethoxy)[1,3]thiazolo[5,4-b]pyridin-2-yl]urea]
IC50 (Msm. GyrB): < 2.54 nM
MIC (M. tuberculosis): 0.354 µg/mL (≈ 0.819 µM)
MIC (Spn548): 0.125 µg/mL (≈ 0.29 µM)
MIC (Eco-tolC): 1 µg/mL (≈ 2.32 µM)

CCNC(=O)Nc1nc2cc(-c3cccc(/C=C/C(=O)O)c3)c(OCC3CCOC3)nc2s1 (stereo not shown) [Example 55, (2E)-3-(3-{2-[(ethylcarbamoyl)amino]-5-(tetrahydrofuran-3-ylmethoxy)[1,3]thiazolo[5,4-b]pyridin-6-yl}phenyl)prop-2-enoic acid]
IC50 (Msm. GyrB): 35.2 nM
MIC (M. tuberculosis): > 8 µg/mL
MIC (Spn548): 0.0625 µg/mL (≈ 0.133 µM)
MIC (Eco-tolC): 2 µg/mL (≈ 4.27 µM)

C=CCNC(=O)Nc1nc2cc(-c3cnc(OC)nc3)c(C)nc2s1 [Example 7, 1-Allyl-3-[6-(2-methoxy-pyrimidin-5-yl)-5-methyl-thiazolo [5,4-b]pyridin-2-yl]-urea]
IC50 (Msm. GyrB): 239 nM
MIC (M. tuberculosis): 32 µg/mL (≈ 89.8 µM)
MIC (Spn548): 0.0625 µg/mL (≈ 0.175 µM)
MIC (Eco-tolC): > 32 µg/mL

C=CCNC(=O)Nc1nc2cc(-c3nc(C(=O)O)cs3)cnc2s1 [Example 31, 2-{2-[(prop-2-en-1-ylcarbamoyl)amino][1,3]thiazolo[5,4-b]pyridin-6-yl}-1,3-thiazole-4-carboxylic acid]
IC50 (Msm. GyrB): 8940 nM
MIC (M. tuberculosis): > 32 µg/mL
MIC (Spn548): > 32 µg/mL
MIC (Eco-tolC): > 32 µg/mL

C=CCNC(=O)Nc1nc2cc(-c3cncc(C(=O)NCCCN4CCCC4=O)c3)cnc2s1 [Example 19, N-[3-(2-oxopyrrolidin-1-yl)propyl]-5-{2-[(prop-2-en-1-ylcarbamoyl)amino][1,3]thiazolo[5,4-b]pyridin-6-yl}pyridine-3-carboxamide]
IC50 (Msm. GyrB): 297 nM
MIC (M. tuberculosis): 32 µg/mL (≈ 66.7 µM)
MIC (Spn548): > 32 µg/mL
MIC (Eco-tolC): > 32 µg/mL

CCNC(=O)Nc1nc2cc(-c3cnc(OC)nc3)cnc2o1 [Example 18, 1-ethyl-3-[6-(2-methoxypyrimidin-5-yl)[1,3]oxazolo[5,4-b]pyridin-2-yl]urea]
IC50 (Msm. GyrB): 10900 nM
MIC (M. tuberculosis): > 32 µg/mL
MIC (Spn548): > 32 µg/mL
MIC (Eco-tolC): > 32 µg/mL

C=CCNC(=O)Nc1nc2cc(-c3cc[nH]n3)c(C)nc2s1 [Example 27, 1-[5-methyl-6-(1H-pyrazol-3-yl)[1,3]thiazolo[5,4-b]pyridin-2-yl]-3-prop-2-en-1-ylurea]
IC50 (Msm. GyrB): 1840 nM
MIC (M. tuberculosis): 11.3 µg/mL (≈ 36 µM)
MIC (Spn548): 2 µg/mL (≈ 6.36 µM)
MIC (Eco-tolC): > 22.6 µg/mL

C=CCNC(=O)Nc1nc2cc(-c3cncnc3)c(C)nc2s1 [Example 6, 1-Allyl-3-(5-methyl-6-pyrimidin-5-yl-thiazolo [5,4-b]pyridin-2-yl)-urea]
IC50 (Msm. GyrB): 151 nM
MIC (M. tuberculosis): 8 µg/mL (≈ 24.5 µM)
MIC (Spn548): 1.01 µg/mL (≈ 3.09 µM)
MIC (Eco-tolC): 32.3 µg/mL (≈ 99 µM)

C=CCNC(=O)Nc1nc2cc(-c3cncc(C(=O)NCCC(C)C)c3)cnc2s1 [Example 24, N-(3-methylbutyl)-5-{2-[(prop-2-en-1-ylcarbamoyl)amino][1,3]thiazolo[5,4-b]pyridin-6-yl}pyridine-3-carboxamide]
IC50 (Msm. GyrB): 583 nM
MIC (M. tuberculosis): > 64 µg/mL
MIC (Spn548): > 32 µg/mL
MIC (Eco-tolC): > 32 µg/mL

C=CCNC(=O)Nc1nc2cc(-c3cnc(OC)nc3)c(OCCN(C)C)nc2s1 [Example 17, 1-allyl-3-(5-(2-(dimethylamino)ethoxy)-6-(2-methoxypyrimidin-5-yl)thiazolo[5,4-b]pyridin-2-yl)urea]
IC50 (Msm. GyrB): 216 nM
MIC (M. tuberculosis): > 64 µg/mL
MIC (Spn548): 16 µg/mL (≈ 37.3 µM)
MIC (Eco-tolC): > 64 µg/mL

CCNC(=O)Nc1nc2cc(-c3ccc(F)nc3)c(OCC3CCOCC3)nc2s1 [Example 59, 1-ethyl-3-[6-(6-fluoropyridin-3-yl)-5-(tetrahydro-2H-pyran-4-ylmethoxy)[1,3]thiazolo[5,4-b]pyridin-2-yl]urea]
IC50 (Msm. GyrB): < 4.83 nM
MIC (M. tuberculosis): 0.5 µg/mL (≈ 1.16 µM)
MIC (Spn548): 0.125 µg/mL (≈ 0.29 µM)
MIC (Eco-tolC): 1 µg/mL (≈ 2.32 µM)

C=CCNC(=O)Nc1nc2cc(-c3cncnc3)c(OCCOC)nc2s1 [Example 30, 1-[5-(2-methoxyethoxy)-6-pyrimidin-5-yl[1,3]thiazolo[5,4-b]pyridin-2-yl]-3-prop-2-en-1-ylurea]
IC50 (Msm. GyrB): 60.3 nM
MIC (M. tuberculosis): 2 µg/mL (≈ 5.18 µM)
MIC (Spn548): 0.152 µg/mL (≈ 0.394 µM)
MIC (Eco-tolC): 0.609 µg/mL (≈ 1.58 µM)

CCNC(=O)Nc1nc2cc(-c3cnc(OC)nc3)cnc2s1 [Example 4, 1-ethyl-3-[6-(2-methoxypyrimidin-5-yl)thiazolo [5,4-b]pyridin-2-yl] urea]
IC50 (Msm. GyrB): 140 nM
MIC (M. tuberculosis): > 8 µg/mL
MIC (Spn548): 0.5 µg/mL (≈ 1.51 µM)
MIC (Eco-tolC): > 64 µg/mL

CCNC(=O)Nc1nc2cc(-c3ccc(F)nc3)c(OC3C=CCCC3)nc2s1 (stereo not shown) [Example 72, 1-[5-(cyclohex-2-en-1-yloxy)-6-(6-fluoropyridin-3-yl)[1,3]thiazolo[5,4-b]pyridin-2-yl]-3-ethylurea]
IC50 (Msm. GyrB): 29.1 nM
MIC (M. tuberculosis): 2 µg/mL (≈ 4.84 µM)
MIC (Spn548): 0.0625 µg/mL (≈ 0.151 µM)
MIC (Eco-tolC): 0.25 µg/mL (≈ 0.605 µM)

CCNC(=O)Nc1nc2cc(-c3cncnc3)c(N[C@@H](C)C(=O)NC)nc2s1 [Example 67, (2S)-2-[[2-(ethylcarbamoylamino)-6-pyrimidin-5-yl-thiazolo[4,5-e]pyridin-5-yl]amino]-N-methyl-propanamide]
IC50 (Msm. GyrB): 15.9 nM
MIC (M. tuberculosis): 1.41 µg/mL (≈ 3.53 µM)
MIC (Spn548): 2 µg/mL (≈ 4.99 µM)
MIC (Eco-tolC): > 64 µg/mL

C=CCOCCOc1nc2sc(NC(=O)NCC)nc2cc1-c1cncnc1 [Example 47, 1-ethyl-3-{5-[2-(prop-2-en-1-yloxy)ethoxy]-6-pyrimidin-5-yl[1,3]thiazolo[5,4-b]pyridin-2-yl}urea]
IC50 (Msm. GyrB): 17.1 nM
MIC (M. tuberculosis): 0.125 µg/mL (≈ 0.312 µM)
MIC (Spn548): 0.0625 µg/mL (≈ 0.156 µM)
MIC (Eco-tolC): 0.5 µg/mL (≈ 1.25 µM)

CCNC(=O)Nc1nc2cc(-c3cccnc3)c(OCCOC(C)C)nc2s1 [Example 41, 1-ethyl-3-{5-[2-(1-methylethoxy)ethoxy]-6-pyridin-3-yl[1,3]thiazolo[5,4-b]pyridin-2-yl}urea]
IC50 (Msm. GyrB): 9.1 nM
MIC (M. tuberculosis): 2 µg/mL (≈ 4.98 µM)
MIC (Spn548): 0.0784 µg/mL (≈ 0.195 µM)
MIC (Eco-tolC): 5.02 µg/mL (≈ 12.5 µM)
